Reference: paper PMC11374673, “Discovery of isoquinoline sulfonamides as allosteric gyrase inhibitors with activity against fluoroquinolone-resistant bacteria” (Nature Chemistry, 2024)
Converted amounts (≈) assume the structure as drawn. “And” between values parts separate entries of the source, which are not always exact repeats. Equal entries are not always repeated. Where two headings read alike, the source gives them in different places.

Assays:
[1] = system: E. coli BW25113 and single-gene knockouts; test: MIC on E. coli strains of the Keio collection; assay type: cell-based, Escherichia coli; settings: for MIC: Escherichia coli
Procedure: (§1) MIC was determined by broth microdilution. Single-colony cultures were grown to exponential phase (OD600 of 0.5) aerobically at 37 °C. In case of strains from the Keio collection, 50 µg ml^−1 kanamycin was supplemented to the media to ascertain a homogeneous population. The bacterial suspensions were diluted 100-fold in CAMHB and 50 µl was added to a twofold serial dilution series of test compounds (50 µl per well) in polypropylene 96-well microtitre plates to reach a volume of 100 µl. The plates were sealed with breathable membranes and incubated overnight at 37 °C with constant shaking (600 r.p.m.). The MIC was determined as the lowest concentration at which no visible bacterial growth was observed as compared with the inoculum controls from the median of a minimum of triplicates.

HEK293T = test: Cytotoxicity assay (MTT); assay type: cell-based, human; settings: for MTT data (raw readout): HEK293T; for IC50: 24 h, MTT
How it was run: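 HEK293T cells, maintained at 37 °C and 7% CO2 in Dulbecco’s modified Eagle medium with GlutaMax, antibiotics and serum, were plated in clear 96-well plates in 100 µl medium containing 1% fetal bovine serum and left 24 h to attach. After 24 h compound exposure, MTT (0.40 mg ml^−1) was added for 2 h. Formazan was dissolved in 100 µl DMSO and absorbance measured at 570 nm. Background-corrected IC50 values came from variable-slope non-linear fits.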

HepG2 = test: Cytotoxicity assay (MTT); assay type: cell-based, human; settings: for IC50: MTT, 24 h
[2] = system: E. coli W3110 gyrA S97L, S83L, D87N; test: MIC against CRISPR/Cas9 gyrA point mutants; assay type: cell-based, Escherichia coli; settings: Escherichia coli
Procedure: as §1
Mutants of the DNA gyrase subunit A encoding gene (gyrA) were constructed following the protocol for gene editing via the CRISPR–Cas9 system. Strains and plasmids used are listed in Supplementary Table 15, and primers used can be found in Supplementary Table 16. The following mutations were created: S97L in E. coli W3110. Two common mutations in the gyrA gene that give resistance to fluoroquinolone antibiotics were created in E. coli W3110, namely S83L and D87N. To create the gyrA (S97L) mutants, the construct psgRNA-gyrA-M5 was assembled as follows: The 20-nt spacer sequence was introduced by PCR on pTargetF using primers gyrA_P11 and gyrA_P12, the homology-directed repair (HDR) arms were amplified from E. coli W3110 genomic DNA by PCR using primer pairs gyrA_P05 and gyrA_P013, and gyrA_P08 and gyrA_P14. The three PCR fragments generated were cloned into the SpeI and BglII digested pTargetF via Gibson assembly. To avoid off-target effects of CRISPR, besides desired point mutation for gyrA (S97L), four other silent point mutations were also included in the HDR template. Consequently, the amino acid sequence of gyrA will remain the same in the generated mutant except for the desired mutation. Similarly, constructs psgRNA-gyrA-S83L and psgRNA-gyrA-D87N were created to introduce mutations S83L and D87N in gyrA, respectively. In psgRNA-gyrA-S83L, spacer sequence was introduced using primers gyrA_P12 and gyrA_P17, HDR template was amplified using primer pairs gyrA_P05 and gyrA_P18, and gyrA_P08 and gyrA_P19. In psgRNA-gyrA-D87N, spacer sequence was introduced using primers gyrA_P12 and gyrA_P20, HDR template was amplified using primer pairs gyrA_P05 and gyrA_P21, and gyrA_P08 and gyrA_P22. The verified constructs for gyrA engineering were transformed into E. coli W3110 carrying pCas9, and plated in LB containing kanamycin (50 µg ml^−1) for the selection of the pCas9 plasmid and spectinomycin (100 µg ml^−1) for the selection of psgRNA-gyrA-X. The plates were incubated at 30 °C. Plasmids were cured by growing the strains with 0.5 mM isopropylthiogalactoside with no antibiotics to lose first the psgRNA-gyrA plasmids. After losing the spectinomycin resistance, the strain was grown in LB with no antibiotics at 42 °C to lose the pCas plasmid. Colony PCR was performed on plasmid-free colonies using primers gyrA_P9 and gyrA_P10, and PCR products were sequenced to confirm the desired mutation

[3] = BW25113, JW3596 ΔrfaC, LPS disruption (genetic)
[4] = BW25113, read-out: MIC E. coli BW25113, parent strain

O=S(=O)(NC[C@H]1CC[C@@H](c2ccc(-c3ccc(F)nc3)cc2)N1)c1cccc2cnccc12 [LEI-801]
potency against ΔtolC efflux pump mutant [1]: No increase in potency
MIC ([1]; BW25113, JW3594 ΔrfaD): 3.1 µM (≈ 1.43 µg/mL)
MIC [1, 3]: 3.1 µM (≈ 1.43 µg/mL)
MIC ([1]; BW25113, JW3600 ΔrfaY): > 50 µM
MIC ([1]; BW25113, JW3602 ΔrfaI): > 50 µM
MIC ([1]; BW25113, JW3605 ΔrfaP): 12.5 µM (≈ 5.78 µg/mL)
MIC ([1]; BW25113, JW5503 ΔTolC): > 50 µM
MIC [1, 4]: > 50 µM
MTT data (raw readout) (HEK293T; 0.023 uM, experiment n = 1, technical triplicates, listed as LEI-801 (99)): 1.090 and 1.041 and 1.057
MTT data (raw readout) (HEK293T; 0.023 uM, experiment n = 2, technical triplicates, listed as LEI-801 (99)): 0.858 and 0.977 and 0.938
MTT data (raw readout) (HEK293T; 0.068 uM, experiment n = 1, technical triplicates, listed as LEI-801 (99)): 1.154 and 1.082 and 1.072
MTT data (raw readout) (HEK293T; 0.068 uM, experiment n = 2, technical triplicates, listed as LEI-801 (99)): 1.027 and 1.034 and 1.015
MTT data (raw readout) (HEK293T; 0.21 uM, experiment n = 1, technical triplicates, listed as LEI-801 (99)): 1.127 and 1.121 and 1.094
MTT data (raw readout) (HEK293T; 0.21 uM, experiment n = 2, technical triplicates, listed as LEI-801 (99)): 0.913 and 0.892 and 0.944
MTT data (raw readout) (HEK293T; 0.62 uM, experiment n = 1, technical triplicates, listed as LEI-801 (99)): 1.141 and 1.092 and 0.930
MTT data (raw readout) (HEK293T; 0.62 uM, experiment n = 2, technical triplicates, listed as LEI-801 (99)): 1.083 and 0.946 and 1.064
MTT data (raw readout) (HEK293T; 1.85 uM, experiment n = 1, technical triplicates, listed as LEI-801 (99)): 1.167 and 1.005 and 0.915
MTT data (raw readout) (HEK293T; 5.6 uM, experiment n = 1, technical triplicates, listed as LEI-801 (99)): 0.937 and 1.019 and 1.040
MTT data (raw readout) (HEK293T; 5.6 uM, experiment n = 2, technical triplicates, listed as LEI-801 (99)): 1.075 and 0.764 and 0.931
MTT data (raw readout) (HEK293T; 16.7 uM, experiment n = 1, technical triplicates, listed as LEI-801 (99)): 0.838 and 0.818 and 0.874
MTT data (raw readout) (HEK293T; 16.7 uM, experiment n = 2, technical triplicates, listed as LEI-801 (99)): 0.745 and 0.746 and 0.735
MTT data (raw readout) (HEK293T; 50 uM, experiment n = 1, technical triplicates, listed as LEI-801 (99)): 0.494 and 0.473 and 0.487
MTT data (raw readout) (HEK293T; 50 uM, experiment n = 2, technical triplicates, listed as LEI-801 (99)): 0.506 and 0.491 and 0.495
IC50 (HEK293T; Homo sapiens, HEK-293T): 51 µM
IC50 (HEK293T; listed as LEI-801 (99)): > 50 µM
MTT data (raw readout) (HepG2; HepG2, 0.023 uM, experiment n = 1, technical triplicates, listed as LEI-801 (99)): 0.358 and 0.291 and 0.289
MTT data (raw readout) (HepG2; HepG2, 0.023 uM, experiment n = 2, technical triplicates, listed as LEI-801 (99)): 0.296 and 0.284 and 0.274
MTT data (raw readout) (HepG2; HepG2, 0.068 uM, experiment n = 1, technical triplicates, listed as LEI-801 (99)): 0.356 and 0.307 and 0.313
MTT data (raw readout) (HepG2; HepG2, 0.068 uM, experiment n = 2, technical triplicates, listed as LEI-801 (99)): 0.301 and 0.287 and 0.260
MTT data (raw readout) (HepG2; HepG2, 0.21 uM, experiment n = 1, technical triplicates, listed as LEI-801 (99)): 0.330 and 0.315 and 0.323
MTT data (raw readout) (HepG2; HepG2, 0.21 uM, experiment n = 2, technical triplicates, listed as LEI-801 (99)): 0.350 and 0.289 and 0.265
MTT data (raw readout) (HepG2; HepG2, 0.62 uM, experiment n = 1, technical triplicates, listed as LEI-801 (99)): 0.417 and 0.319 and 0.320
MTT data (raw readout) (HepG2; HepG2, 0.62 uM, experiment n = 2, technical triplicates, listed as LEI-801 (99)): 0.301 and 0.282 and 0.253
MTT data (raw readout) (HepG2; HepG2, 1.85 uM, experiment n = 1, technical triplicates, listed as LEI-801 (99)): 0.361 and 0.335 and 0.354
MTT data (raw readout) (HepG2; HepG2, 1.85 uM, experiment n = 2, technical triplicates, listed as LEI-801 (99)): 0.263 and 0.269 and 0.244
MTT data (raw readout) (HepG2; HepG2, 5.6 uM, experiment n = 1, technical triplicates, listed as LEI-801 (99)): 0.370 and 0.351 and 0.360
MTT data (raw readout) (HepG2; HepG2, 5.6 uM, experiment n = 2, technical triplicates, listed as LEI-801 (99)): 0.293 and 0.267 and 0.296
MTT data (raw readout) (HepG2; HepG2, 16.7 uM, experiment n = 1, technical triplicates, listed as LEI-801 (99)): 0.376 and 0.357 and 0.431
MTT data (raw readout) (HepG2; HepG2, 16.7 uM, experiment n = 2, technical triplicates, listed as LEI-801 (99)): 0.300 and 0.252 and 0.259
MTT data (raw readout) (HepG2; HepG2, 50 uM, experiment n = 1, technical triplicates, listed as LEI-801 (99)): 0.327 and 0.318 and 0.307
MTT data (raw readout) (HepG2; HepG2, 50 uM, experiment n = 2, technical triplicates, listed as LEI-801 (99)): 0.232 and 0.220 and 0.225
IC50 (HepG2; Homo sapiens, HepG2, 24 h): > 100 µM
IC50 (HepG2; listed as LEI-801 (99)): > 50 µM

O=C(O)c1cn(C2CC2)c2cc(N3CCNCC3)c(F)cc2c1=O [CIP, ciprofloxacin]
MIC ([1]; BW25113, JW3594 ΔrfaD): > 0.048 µM
MIC [1, 3]: 0.024 µM (≈ 0.00795 µg/mL)
MIC ([1]; BW25113, JW3600 ΔrfaY): 0.024 µM (≈ 0.00795 µg/mL)
MIC ([1]; BW25113, JW3602 ΔrfaI): 0.024 µM (≈ 0.00795 µg/mL)
MIC ([1]; BW25113, JW3605 ΔrfaP): 0.048 µM (≈ 0.0159 µg/mL)
MIC ([1]; BW25113, JW5503 ΔTolC): 0.024 µM (≈ 0.00795 µg/mL)
MIC [1, 4]: 0.024 µM (≈ 0.00795 µg/mL)
MIC ([2]; E. coli W3110 gyrA D87N (FQ-resistant 2)): > 1.5 µM
MIC ([2]; E. coli W3110 gyrA S83L (FQ-resistant 1)): > 1.5 µM
MIC ([2]; E. coli W3110 gyrA S97L (LEI-800-resistant)): 0.024 µM (≈ 0.00795 µg/mL)
